{"source": "PubChem BioAssay AID1745844", "about": "(Carcinogenic Potency Database (CPDB), 2022)", "system": "rodent lifetime carcinogenesis bioassay, tumor incidence TD50", "experiment": "chronic cancer bioassays in animals – CPDB, compiled studies (AID 1745844)", "note": "Values joined by “and” are separate entries in the source; they are usually repeats but may differ in a detail not shown here. Equal entries are not always repeated. Active and inactive are the calls of the source. The rule behind the calls is not given here."}
{"smiles": "CC1(C)[C@H](C(=O)O[C@H](C#N)c2cccc(Oc3ccccc3)c2)[C@@H]1C=C(Br)Br", "values": [{"measurement": "carcinogen call", "setting": "mouse, strain C57BL/6, females, by gavage, site: all sites, lesion: lymphoma, dosed 104 weeks, study length 114 weeks", "result": "negative (inactive)"}, {"measurement": "carcinogen call", "setting": "mouse, strain C57BL/6, females, by gavage, site: any site (literature study), lesion: one or several types, types not named, dosed 104 weeks, study length 114 weeks", "result": "negative (inactive)"}, {"measurement": "carcinogen call", "setting": "mouse, strain C57BL/6, females, by gavage, site: liver, lesion: hepatoma, dosed 104 weeks, study length 114 weeks", "result": "negative (inactive)"}, {"measurement": "carcinogen call", "setting": "mouse, strain C57BL/6, females, by gavage, site: lung, lesion: adenoma, dosed 104 weeks, study length 114 weeks", "result": "negative (inactive)"}, {"measurement": "carcinogen call", "setting": "mouse, strain C57BL/6, males, by gavage, site: any site (literature study), lesion: one or several types, types not named, dosed 104 weeks, study length 114 weeks", "result": "negative (inactive)"}, {"measurement": "carcinogen call", "setting": "mouse, strain C57BL/6, males, by gavage, site: liver, lesion: hepatoma, dosed 104 weeks, study length 114 weeks", "result": "negative (inactive)"}, {"measurement": "carcinogen call", "setting": "mouse, strain C57BL/6, males, by gavage, site: lung, lesion: adenoma, dosed 104 weeks, study length 114 weeks", "result": "negative (inactive)"}, {"measurement": "TD50", "setting": "rat, strain BD VI, females, by gavage, site: any site (literature study), lesion: one or several types, types not named, dosed 104 weeks, study length 114 weeks", "result": "36.1 mg/kg/day (inactive)"}, {"measurement": "carcinogen call", "setting": "rat, strain BD VI, females, by gavage, site: liver, lesion: hepatoma, dosed 104 weeks, study length 114 weeks", "result": "negative (inactive)"}, {"measurement": "TD50", "setting": "rat, strain BD VI, females, by gavage, site: thyroid gland, lesion: adenoma, dosed 104 weeks, study length 114 weeks", "result": "16.9 mg/kg/day (inactive)"}, {"measurement": "carcinogen call", "setting": "rat, strain BD VI, males, by gavage, site: any site (literature study), lesion: one or several types, types not named, dosed 104 weeks, study length 114 weeks", "result": "negative (inactive)"}, {"measurement": "carcinogen call", "setting": "rat, strain BD VI, males, by gavage, site: liver, lesion: hepatoma, dosed 104 weeks, study length 114 weeks", "result": "negative (inactive)"}, {"measurement": "TD50", "setting": "rat, strain BD VI, males, by gavage, site: thyroid gland, lesion: adenoma, dosed 104 weeks, study length 114 weeks", "result": "4.6 mg/kg/day (inactive)"}]}
{"smiles": "O=c1[nH]nc(-c2ccc([N+](=O)[O-])o2)o1", "values": [{"measurement": "TD50", "setting": "rat, strain Sprague-Dawley, females, in feed, site: any site (literature study), lesion: several types, types named in the paper, dosed 46 weeks, study length 66 weeks", "result": 8.61, "unit": "mg/kg/day"}, {"measurement": "TD50", "setting": "rat, strain Sprague-Dawley, females, in feed, site: mammary gland, lesion: adenocarcinoma, dosed 46 weeks, study length 66 weeks", "result": 31.2, "unit": "mg/kg/day"}, {"measurement": "TD50", "setting": "rat, strain Sprague-Dawley, females, in feed, site: mammary gland, lesion: several types, types named in the paper, dosed 46 weeks, study length 66 weeks", "result": 8.61, "unit": "mg/kg/day"}]}
{"smiles": "Cc1ccc(N)cc1N", "values": [{"measurement": "TD50", "setting": "mouse, strain B6C3F1, females, in feed, site: all sites, lesion: leukemia + lymphoma, dosed 101 weeks, study length 101 weeks", "result": 10.6, "unit": "mg/kg/day"}, {"measurement": "TD50", "setting": "mouse, strain B6C3F1, females, in feed, site: any site (literature study), lesion: several types, types named in the paper, dosed 101 weeks, study length 101 weeks", "result": 8.64, "unit": "mg/kg/day"}, {"measurement": "TD50", "setting": "mouse, strain B6C3F1, females, in feed, site: liver, lesion: hepatocellular adenoma + hepatocellular carcinoma + neoplastic nodule, dosed 101 weeks, study length 101 weeks", "result": 26.7, "unit": "mg/kg/day"}, {"measurement": "TD50", "setting": "mouse, strain B6C3F1, females, in feed, site: liver, lesion: hepatocellular carcinoma, dosed 101 weeks, study length 101 weeks", "result": 26.7, "unit": "mg/kg/day"}, {"measurement": "TD50", "setting": "mouse, strain B6C3F1, males, in feed, site: any site (literature study), lesion: several types, types named in the paper, dosed 101 weeks, study length 101 weeks", "result": 105, "unit": "mg/kg/day"}, {"measurement": "TD50", "setting": "mouse, strain B6C3F1, males, in feed, site: lung, lesion: alveolar/bronchiolar adenoma + alveolar/bronchiolar carcinoma, dosed 101 weeks, study length 101 weeks", "result": 35.8, "unit": "mg/kg/day"}, {"measurement": "TD50", "setting": "mouse, strain B6C3F1, males, in feed, site: lung, lesion: alveolar/bronchiolar carcinoma, dosed 101 weeks, study length 101 weeks", "result": "35.8 mg/kg/day (inactive)"}, {"measurement": "TD50", "setting": "mouse, strain CD-1 HaM/ICR, females, in feed, site: any site (literature study), lesion: several types, types named in the paper, dosed 77 weeks, study length 90 weeks", "result": 100, "unit": "mg/kg/day"}, {"measurement": "TD50", "setting": "mouse, strain CD-1 HaM/ICR, females, in feed, site: liver, lesion: hepatoma, dosed 77 weeks, study length 90 weeks", "result": 206, "unit": "mg/kg/day"}, {"measurement": "TD50", "setting": "mouse, strain CD-1 HaM/ICR, females, in feed, site: liver, lesion: several types, types named in the paper, dosed 77 weeks, study length 90 weeks", "result": 180, "unit": "mg/kg/day"}, {"measurement": "TD50", "setting": "mouse, strain CD-1 HaM/ICR, females, in feed, site: lung, lesion: several types, types named in the paper, dosed 77 weeks, study length 90 weeks", "result": "72 mg/kg/day (inactive)"}, {"measurement": "TD50", "setting": "mouse, strain CD-1 HaM/ICR, males, in feed, site: all sites, lesion: all vascular tumors, dosed 77 weeks, study length 90 weeks", "result": 317, "unit": "mg/kg/day"}, {"measurement": "TD50", "setting": "mouse, strain CD-1 HaM/ICR, males, in feed, site: liver, lesion: hepatoma, dosed 77 weeks, study length 90 weeks", "result": 201, "unit": "mg/kg/day"}, {"measurement": "TD50", "setting": "mouse, strain CD-1 HaM/ICR, males, in feed, site: liver, lesion: several types, types named in the paper, dosed 77 weeks, study length 90 weeks", "result": 191, "unit": "mg/kg/day"}, {"measurement": "carcinogen call", "setting": "mouse, strain CD-1 HaM/ICR, males, in feed, site: lung, lesion: several types, types named in the paper, dosed 77 weeks, study length 90 weeks", "result": "negative (inactive)"}, {"measurement": "TD50", "setting": "rat, strain Charles River CD (Sprague-Dawley), males, in feed, site: any site (literature study), lesion: several types, types named in the paper, dosed 64 weeks, study length 73 weeks", "result": 2.98, "unit": "mg/kg/day"}, {"measurement": "TD50", "setting": "rat, strain Charles River CD (Sprague-Dawley), males, in feed, site: liver, lesion: hepatoma, dosed 64 weeks, study length 73 weeks", "result": 22.2, "unit": "mg/kg/day"}, {"measurement": "TD50", "setting": "rat, strain Charles River CD (Sprague-Dawley), males, in feed, site: liver, lesion: several types, types named in the paper, dosed 64 weeks, study length 73 weeks", "result": 26.2, "unit": "mg/kg/day"}, {"measurement": "TD50", "setting": "rat, strain Charles River CD (Sprague-Dawley), males, in feed, site: subcutaneous tissue, lesion: fibroma, dosed 64 weeks, study length 73 weeks", "result": "5.42 mg/kg/day and 4.42 mg/kg/day"}, {"measurement": "TD50", "setting": "rat, strain Fischer 344, females, in feed, site: any site (literature study), lesion: several types, types named in the paper, dosed 93 weeks, study length 103 weeks", "result": 1.46, "unit": "mg/kg/day"}, {"measurement": "TD50", "setting": "rat, strain Fischer 344, females, in feed, site: liver + mammary gland, lesion: hepatocellular carcinoma + neoplastic nodule + adenoma + carcinoma, dosed 93 weeks, study length 103 weeks", "result": 1.43, "unit": "mg/kg/day"}, {"measurement": "TD50", "setting": "rat, strain Fischer 344, females, in feed, site: liver, lesion: hepatocellular adenoma + hepatocellular carcinoma + neoplastic nodule, dosed 93 weeks, study length 103 weeks", "result": 58, "unit": "mg/kg/day"}, {"measurement": "TD50", "setting": "rat, strain Fischer 344, females, in feed, site: liver, lesion: hepatocellular carcinoma + neoplastic nodule, dosed 93 weeks, study length 103 weeks", "result": 58, "unit": "mg/kg/day"}, {"measurement": "TD50", "setting": "rat, strain Fischer 344, females, in feed, site: mammary gland, lesion: adenoma + carcinoma, dosed 93 weeks, study length 103 weeks", "result": 5.54, "unit": "mg/kg/day"}, {"measurement": "TD50", "setting": "rat, strain Fischer 344, females, in feed, site: mammary gland, lesion: adenoma, dosed 93 weeks, study length 103 weeks", "result": 1.46, "unit": "mg/kg/day"}, {"measurement": "TD50", "setting": "rat, strain Fischer 344, females, in feed, site: mammary gland, lesion: carcinoma, dosed 93 weeks, study length 103 weeks", "result": 8.98, "unit": "mg/kg/day"}, {"measurement": "TD50", "setting": "rat, strain Fischer 344, females, in feed, site: subcutaneous tissue, lesion: fibroma, dosed 93 weeks, study length 103 weeks", "result": 16.4, "unit": "mg/kg/day"}, {"measurement": "TD50", "setting": "rat, strain Fischer 344, males, in feed, site: all sites, lesion: mesothelioma, dosed 91 weeks, study length 103 weeks", "result": 6.81, "unit": "mg/kg/day"}, {"measurement": "TD50", "setting": "rat, strain Fischer 344, males, in feed, site: any site (literature study), lesion: several types, types named in the paper, dosed 91 weeks, study length 103 weeks", "result": 0.991, "unit": "mg/kg/day"}, {"measurement": "TD50", "setting": "rat, strain Fischer 344, males, in feed, site: liver, lesion: hepatocellular adenoma + hepatocellular carcinoma + neoplastic nodule, dosed 91 weeks, study length 103 weeks", "result": 8.11, "unit": "mg/kg/day"}, {"measurement": "TD50", "setting": "rat, strain Fischer 344, males, in feed, site: liver, lesion: hepatocellular carcinoma + neoplastic nodule, dosed 91 weeks, study length 103 weeks", "result": 8.11, "unit": "mg/kg/day"}, {"measurement": "TD50", "setting": "rat, strain Fischer 344, males, in feed, site: subcutaneous tissue, lesion: fibroma, dosed 91 weeks, study length 103 weeks", "result": 2.52, "unit": "mg/kg/day"}, {"measurement": "TD50", "setting": "rat, strain Fischer 344, males, in feed, site: subcutaneous tissue, lesion: lipoma, dosed 91 weeks, study length 103 weeks", "result": 13.2, "unit": "mg/kg/day"}]}
{"smiles": "COc1c(Cl)c(Cl)c(Cl)c(Cl)c1Cl", "values": [{"measurement": "TD50", "setting": "mouse, strain B6C3F1, females, by gavage, site: any site (literature study), lesion: several types, types named in the paper, dosed 103 weeks, study length 104 weeks", "result": "47.5 mg/kg/day (inactive)"}, {"measurement": "TD50", "setting": "mouse, strain B6C3F1, females, by gavage, site: liver, lesion: hepatocellular adenoma + hepatocellular carcinoma + neoplastic nodule, dosed 103 weeks, study length 104 weeks", "result": 63, "unit": "mg/kg/day"}, {"measurement": "TD50", "setting": "mouse, strain B6C3F1, females, by gavage, site: lung, lesion: alveolar/bronchiolar adenoma + alveolar/bronchiolar carcinoma, dosed 103 weeks, study length 104 weeks", "result": 776, "unit": "mg/kg/day"}, {"measurement": "TD50", "setting": "mouse, strain B6C3F1, males, by gavage, site: adrenal medulla + liver, lesion: pheochromocytoma, benign + hemangiosarcoma, dosed 103 weeks, study length 104 weeks", "result": 38.3, "unit": "mg/kg/day"}, {"measurement": "TD50", "setting": "mouse, strain B6C3F1, males, by gavage, site: adrenal medulla, lesion: pheochromocytoma, benign, dosed 103 weeks, study length 104 weeks", "result": 77.4, "unit": "mg/kg/day"}, {"measurement": "TD50", "setting": "mouse, strain B6C3F1, males, by gavage, site: any site (literature study), lesion: several types, types named in the paper, dosed 103 weeks, study length 104 weeks", "result": 40.2, "unit": "mg/kg/day"}, {"measurement": "TD50", "setting": "mouse, strain B6C3F1, males, by gavage, site: liver, lesion: hemangiosarcoma, dosed 103 weeks, study length 104 weeks", "result": 68, "unit": "mg/kg/day"}, {"measurement": "TD50", "setting": "rat, strain Fischer 344, females, by gavage, site: adrenal medulla, lesion: pheochromocytoma, benign, dosed 103 weeks, study length 104 weeks", "result": 174, "unit": "mg/kg/day"}, {"measurement": "TD50", "setting": "rat, strain Fischer 344, females, by gavage, site: liver, lesion: hepatocellular adenoma + hepatocellular carcinoma + neoplastic nodule, dosed 103 weeks, study length 104 weeks", "result": 1180, "unit": "mg/kg/day"}, {"measurement": "TD50", "setting": "rat, strain Fischer 344, males, by gavage, site: adrenal medulla, lesion: pheochromocytoma, benign, dosed 103 weeks, study length 104 weeks", "result": 24.8, "unit": "mg/kg/day"}, {"measurement": "TD50", "setting": "rat, strain Fischer 344, males, by gavage, site: adrenal medulla, lesion: pheochromocytoma, malignant + pheochromocytoma, benign, dosed 103 weeks, study length 104 weeks", "result": 30, "unit": "mg/kg/day"}, {"measurement": "TD50", "setting": "rat, strain Fischer 344, males, by gavage, site: liver, lesion: hepatocellular adenoma + hepatocellular carcinoma + neoplastic nodule, dosed 103 weeks, study length 104 weeks", "result": 6460, "unit": "mg/kg/day"}]}
